Experimental data published in BindingDB's records for doi:10.1021/jm061152t (Abbott Laboratories, 2007).
Several values for one entry are separate records, joined by “and”; a condition that tells them apart may be missing. Equal entries are not always repeated.

What was measured:
[1] = biological target: Apoptosis regulator Bcl-2 (Homo sapiens, UniProt P10415); assay: Fluorescence Polarization Assay and FL5.12 Cellular Assay
Method: (§1) The binding affinities (Ki) of compounds were determined using fluorescence polarization assays (FPA) that measure their ability to competitively displace a Bad-derived peptide from Bcl-xL. Compound efficacy (EC50) in a cellular context was evaluated by testing their ability to reverse the protection from cytokine withdrawal afforded by overexpression of Bcl-xL in the IL-3 dependent murine pro-B cell line FL5.12.

Bcl-2-like protein 1 [2] = biological target: T1, Bcl-2-like protein 1 (Homo sapiens, UniProt Q07817); assay: Fluorescence Polarization (FP) Assay and FL5.12 Cellular Assay; details: pH 7.4; 25 °C
T1 sequence (Q07817 whole entry): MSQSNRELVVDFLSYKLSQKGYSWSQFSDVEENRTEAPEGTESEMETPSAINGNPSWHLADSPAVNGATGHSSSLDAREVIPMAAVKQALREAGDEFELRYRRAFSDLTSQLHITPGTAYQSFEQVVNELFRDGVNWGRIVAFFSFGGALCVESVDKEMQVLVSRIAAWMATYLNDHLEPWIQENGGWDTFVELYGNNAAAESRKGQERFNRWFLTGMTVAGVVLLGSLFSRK
Method: as §1, with “Bcl-xL. […]” for “Bcl-xL.”

Bcl-2-like protein 1 [3] = biological target: T1, Bcl-2-like protein 1; assay: Fluorescence Polarization Assay and FL5.12 Cellular Assay
Method: as §1

[4] = The binding affinities (Ki) of compounds were determined using fluorescence polarization assays (FPA) that measure their ability to competitively displace a Bad-derived peptide from Bcl-xL. Compound efficacy (EC50) in a cellular context was evaluated by testing their ability to reverse the protection from cytokine w
[5] = The binding affinities (Ki) of compounds were determined using fluorescence polarization assays (FPA) that measure their ability to competitively displace a Bad-derived peptide from Bcl-xL. IC50 values were binding affinities measured in the presence of 10% human serum. Compound efficacy (EC50) in a cellular co; details: pH 7.4

Sequence of Apoptosis regulator Bcl-2 (P10415 whole entry): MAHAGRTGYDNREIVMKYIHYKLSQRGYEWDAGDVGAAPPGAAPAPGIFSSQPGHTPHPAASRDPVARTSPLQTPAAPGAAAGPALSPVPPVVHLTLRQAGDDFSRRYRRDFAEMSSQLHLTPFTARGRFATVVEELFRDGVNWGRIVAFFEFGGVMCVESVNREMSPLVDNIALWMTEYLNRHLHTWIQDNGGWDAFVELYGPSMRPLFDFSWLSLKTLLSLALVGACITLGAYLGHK

| SMILES | EC50 [4] | EC50 [5] [nM] | further results |
| --- | --- | --- | --- |
| CCCCC1(OC)CCN(c2ccc(C(=O)NS(=O)(=O)c3ccc(N[C@H](CCN(C)C)CSc4ccccc4)c([N+](=O)[O-])c3)cc2)CC1 [4-(4-butyl-4-methoxypiperidin-1-yl)-N-[(4-{[(2R)-4-(dimethylamino)-1-(phenylsulfanyl)butan-2-yl]amino}-3-nitrobenzene)sulfonyl]benzamide] | – | – | EC50 [1]: 3000 nM; Ki [1]: 20 nM; EC50 (Bcl-2-like protein 1 [2]): 8000 nM; IC50 (Bcl-2-like protein 1 [2]): 312 nM; Ki (Bcl-2-like protein 1 [2]): 1.3 nM |
| CN(C)CC[C@H](CSc1ccccc1)Nc1ccc(S(=O)(=O)NC(=O)c2ccc(N3CCN(Cc4ccccc4-c4ccc(S(C)(=O)=O)cc4)CC3)cc2)cc1[N+](=O)[O-] [N-[(4-{[(2R)-4-(dimethylamino)-1-(phenylsulfanyl)butan-2-yl]amino}-3-nitrobenzene)sulfonyl]-4-(4-{[2-(4-methanesulfonylphenyl)phenyl]methyl}piperazin-1-yl)benzamide] | 460 nM and 530 nM | – | Ki (Bcl-2-like protein 1 [3]): 9.1 nM |
| COC1(CC(C)C)CCN(c2ccc(C(=O)NS(=O)(=O)c3ccc(N[C@H](CCN(C)C)CSc4ccccc4)c([N+](=O)[O-])c3)cc2)CC1 [N-[(4-{[(2R)-4-(dimethylamino)-1-(phenylsulfanyl)butan-2-yl]amino}-3-nitrobenzene)sulfonyl]-4-[4-methoxy-4-(2-methylpropyl)piperidin-1-yl]benzamide] | 700 nM | 580 | – |
| CN(C)CC[C@H](CSc1ccccc1)Nc1ccc(S(=O)(=O)NC(=O)c2ccc(N3CCC(=Cc4ccc(Cl)cc4)CC3)cc2)cc1[N+](=O)[O-] [4-{4-[(4-chlorophenyl)methylidene]piperidin-1-yl}-N-[(4-{[(2R)-4-(dimethylamino)-1-(phenylsulfanyl)butan-2-yl]amino}-3-nitrobenzene)sulfonyl]benzamide] | 1180 nM | 620 | – |
| COC1(CC2CCCCC2)CCN(c2ccc(C(=O)NS(=O)(=O)c3ccc(N[C@H](CCN(C)C)CSc4ccccc4)c([N+](=O)[O-])c3)cc2)CC1 [4-[4-(cyclohexylmethyl)-4-methoxypiperidin-1-yl]-N-[(4-{[(2R)-4-(dimethylamino)-1-(phenylsulfanyl)butan-2-yl]amino}-3-nitrobenzene)sulfonyl]benzamide] | 200 nM | 320 | – |
| COc1ccccc1CC1(OC)CCN(c2ccc(C(=O)NS(=O)(=O)c3ccc(N[C@H](CCN(C)C)CSc4ccccc4)c([N+](=O)[O-])c3)cc2)CC1 [N-[(4-{[(2R)-4-(dimethylamino)-1-(phenylsulfanyl)butan-2-yl]amino}-3-nitrobenzene)sulfonyl]-4-{4-methoxy-4-[(2-methoxyphenyl)methyl]piperidin-1-yl}benzamide] | 250 nM | 150 | – |
| CN(C)CC[C@H](CSc1ccccc1)Nc1ccc(S(=O)(=O)NC(=O)c2ccc(N3CCC(=Cc4ccccc4Cl)CC3)cc2)cc1[N+](=O)[O-] [4-{4-[(2-chlorophenyl)methylidene]piperidin-1-yl}-N-[(4-{[(2R)-4-(dimethylamino)-1-(phenylsulfanyl)butan-2-yl]amino}-3-nitrobenzene)sulfonyl]benzamide] | 450 nM | 350 | – |
| COc1ccccc1C=C1CCN(c2ccc(C(=O)NS(=O)(=O)c3ccc(N[C@H](CCN(C)C)CSc4ccccc4)c([N+](=O)[O-])c3)cc2)CC1 [N-[(4-{[(2R)-4-(dimethylamino)-1-(phenylsulfanyl)butan-2-yl]amino}-3-nitrobenzene)sulfonyl]-4-{4-[(2-methoxyphenyl)methylidene]piperidin-1-yl}benzamide] | 250 nM | 300 | – |
